BindingDB's records for doi:10.7270/Q2CN728N (Nmmlsc, 2008)

What follows are compounds tested against T1, Bcl-2-related protein A1 (Homo sapiens, UniProt Q16548) (assay: Bfl-1/Bim complex disruptors – biochemical, multiplexed, bead-based flow cytometry, dose response (AID 1320)). Details: inactive by the depositor's call; pH 7.4; 4 °C.
T1 sequence (Q16548 whole entry): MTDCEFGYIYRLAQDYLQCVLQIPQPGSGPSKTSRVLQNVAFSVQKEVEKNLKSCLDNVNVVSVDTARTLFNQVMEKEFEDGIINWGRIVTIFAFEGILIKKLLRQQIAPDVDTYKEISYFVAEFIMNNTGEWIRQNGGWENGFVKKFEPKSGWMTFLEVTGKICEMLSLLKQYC

Structure (SMILES) | EC50 [µM]
COc1ccc(OC)c(-n2c(S)nnc2-c2ccc(C)cc2)c1 [SMR000155418] | 3.05
Nc1ccc(C2=Nc3cccc4cccc(c34)N2)cc1 [SMR000175908] | 16.1
S=c1[nH]cc(-c2ccccc2)n1-c1ccccc1 [SMR000196363] | 1.92
CCC(=O)OCCNc1cc(Sc2nccn2C)c2nonc2c1[N+](=O)[O-] [SMR000207033] | 26.8
CCN1C(=O)/C(=C\C=C2/C=CC=CN2CC)SC1=S [SMR000225150] | 4.01
CNc1ccc(Br)cc(C(=O)/C=C/c2ccc(OC)cc2)c1=O [SMR000229850] | 15
CCN(CC)c1ccc(NC(=O)c2ccccc2F)cc1S(=O)(=O)Nc1ccccc1OC [SMR000241522] | 12.2
O=C1c2ccccc2-c2onc3ccc(N4CCCC4)c1c23 [SMR000279741] | 24.8
COc1ccccc1-n1c(-c2cc(-c3ccc(F)cc3)[nH]n2)n[nH]c1=S [SMR000293072] | 5.04
COc1cc(OC)c([N+](=O)[O-])cc1[CH+][N-]NC(=O)c1ccncc1 [SMR000306621] | 42.3
O=c1c2c(-c3ccccc3)csc2nc2c3ccccc3c(NCCN3CCOCC3)nn12 [SMR000352519] | 30.3
CCOC(=O)CSC1=NC(=O)/C(=C/c2ccc(Br)cc2)S1 [ethyl 2-[[(5Z)-5-[(4-bromophenyl)methylidene]-4-oxo-1,3-thiazol-2-yl]sulfanyl]acetate] | 0.55

Same assay, conditions: pH 7.4; 4 °C

Structure (SMILES) | EC50 [µM]
O=C(Nc1cccc(C(F)(F)F)c1)c1ccc2nc(-c3ccco3)c(-c3ccco3)nc2c1 [SMR000142217] | 2.96
COC(=O)c1c(C(=O)OC)c2cccc3cc(-c4ccccc4)c4ccc1c4n32 [SMR000161417] | 1.12
O=c1[nH]c2ccc(N=Cc3c(O)ccc4cc(Br)ccc34)cc2[nH]1 [SMR000171789] | 4.46
CCOC(=O)CSC1=NC(=O)/C(=C\c2ccc(OC(C)=O)cc2)S1 [SMR000180755] | 3.33
C#CCn1cc(C=C2C(=O)c3ccccc3C2=O)c2ccccc21 [SMR000196125] | 9.57
CCC(=O)OCCNc1cc(Sc2nc3ccccc3[nH]2)c2nonc2c1[N+](=O)[O-] [SMR000207032] | 1.63
Cc1ccc(-c2nc(N3CCOCC3)s[n+]2-c2ccccc2)cc1 [SMR000225370] | 0.02
CNCc1ccccc1Sc1ccc(O)c(O)c1 [SMR000230497] | 31.7
Oc1ccc(NCc2ccccc2OCc2ccccc2)cc1 [SMR000231540] | 1.12
CN=c1scc(-c2cccs2)n1N=Cc1ccc(O)c(O)c1O [SMR000242177] | 5.71
Nc1c(C(=O)NCC2CCCO2)sc2nc3c(c(-c4ccco4)c12)CC/C3=C\c1ccco1 (stereo not drawn) [SMR000259502] | 0.87
Nc1c(C(=O)NC2CC2)sc2nc3c(c(-c4ccco4)c12)CC/C3=C/c1ccco1 [SMR000259554] | 1.09
Cc1nc2scc(-c3ccccc3)c2c(=O)n1N=C1C=CC(=O)C=C1 [SMR000285999] | 0.56
C=C[S+]([O-])c1sc(Cl)c(N2CCOCC2)c1[N+](=O)[O-] (stereo not drawn) [SMR000293370] | 0.85
CC1CC(=Cc2cccc(F)c2)C2=NC(=S)NC(c3cccc(F)c3)C2C1 (stereo not drawn) [SMR000306148] | 15.2
CC(=NNC(=O)c1cc(O)c(O)c(O)c1)c1ccc([N+](=O)[O-])cc1 [SMR000312589] | 6.78
O=C(O)c1ccc(NC2=CC(=NS(=O)(=O)c3ccccc3)c3ccccc3C2=O)cc1 [SMR000313157] | 9.21
CCN1/C(=C/C(C)=C/c2sc3ccccc3[n+]2CC)Sc2ccccc21 [SMR000354813] | 41.1
CCN(CC)C(=O)COC(=O)c1cc(-c2ccco2)nc2ccccc12 [SMR000377201] | 1.03
Cn1c(=O)c(C(=O)COC(=O)c2cc(-c3ccco3)nc3ccccc23)c(N)n(Cc2ccccc2)c1=O [[2-(6-amino-1-benzyl-3-methyl-2,4-dioxopyrimidin-5-yl)-2-oxoethyl] 2-(furan-2-yl)quinoline-4-carboxylate] | 1.77
CCOC(=O)C1=C(Cc2ccc(C)cc2)C(=O)c2ccccc2C1=O [ethyl 3-[(4-methylphenyl)methyl]-1,4-bis(oxidanylidene)naphthalene-2-carboxylate] | 3.2
